# Assay results reported in US20050239656A1, “Pyridine compounds or salts thereof and herbicides containing the same” (priority 2002, published 2005).
# What was measured:
# [1] = tested on: barnyardgrass; assay: Test Example 3: paddy pot test, application under submerged conditions; type: in vivo, Echinochloa crus-galli L.; details: active ingredient 250 g/ha; submerged application at 0.5 leaf stage; visually observed 14 days after application; 0 = non-treated, 100 = complete kill
# Method in brief: (§1)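 After sowing seeds and planting wapato tubers in flooded paddy soil, an aqueous dilution of the formulated compound was added to the 3–4 cm flood water at early leaf stage. Percent growth control relative to the untreated plot was assessed visually on day 14.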
# [2] = tested on: barnyardgrass; assay: Test Example 2: soil surface treatment, upland pot test; type: in vivo, Echinochloa crus-galli L.; details: active ingredient 500 g/ha, observed 20th to 28th day
# Method in brief: (§2)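 Seeds were sown in upland field soil in 1/170,000 ha pots. One day later, a wettable powder or emulsifiable concentrate at a predetermined active-ingredient rate, diluted in water at 1,500 L/ha, was sprayed onto the soil surface. Growth control (%) was scored visually 20–28 days after application (0 = untreated, 100 = complete kill).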
# [3] = tested on: redroot pigweed; assay: as above; type: in vivo, Amaranthus retroflexus L.; details: active ingredient 500 g/ha, observed 20th to 28th day
# Method in brief: as §2
# [4] = tested on: corn; assay: as above; type: in vivo, Zea mays L.; details: active ingredient 500 g/ha, observed 20th to 28th day
# Method in brief: as §2
# [5] = tested on: prickly sida; assay: as above; type: in vivo, Sida spinosa L.; details: active ingredient 500 g/ha, observed 20th to 28th day
# Method in brief: as §2
# [6] = tested on: soybean; assay: as above; type: in vivo, Glycine max Merr.; details: active ingredient 500 g/ha, observed 20th to 28th day
# Method in brief: as §2
# [7] = tested on: green foxtail; assay: Test Example 1: foliage treatment, upland pot test; type: in vivo, Setaria viridis L.; details: active ingredient 500 g/ha, observed 18th to 23rd day, 0 = non-treated, 100 = complete kill
# [8] = tested on: crabgrass; assay: Test Example 2: soil surface treatment, upland pot test; type: in vivo, Digitaria sanguinalis L.; details: active ingredient 500 g/ha, observed 20th to 28th day
# Method in brief: as §2
# [9] = tested on: prickly sida; assay: Test Example 1: foliage treatment, upland pot test; type: in vivo, Sida spinosa L.; details: active ingredient 500 g/ha, observed 18th to 23rd day, 0 = non-treated, 100 = complete kill
# [10] = tested on: rice (var. Nihonbare); assay: Test Example 3: paddy pot test, transplanted rice; type: in vivo, Oryza sativa L.; details: active ingredient 250 g/ha, applied 4th day after transplantation, visually observed 21st day after application, 0 = non-treated, 100 = complete kill
# Method in brief: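 Rice (2-leaf stage) was transplanted 3 cm deep into puddled, leveled paddy soil under 3–4 cm flooding. On day 4 after transplanting, diluted wettable powder or emulsifiable concentrate was pipetted onto the water at a predetermined active-ingredient dose. Growth control (0 = untreated, 100 = complete kill) was scored visually 21 days later.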
# [11] = tested on: rice; assay: Test Example 1: foliage treatment, upland pot test; type: in vivo, Oryza sativa L.; details: crop, active ingredient 500 g/ha, observed 18th to 23rd day, 0 = non-treated, 100 = complete kill
# Method in brief: (§3)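 Each plant species was sprayed once on its foliage, with wheat at 1.3–2.4, soybean at 0.1–0.4, barnyardgrass at 1.3–2.8 and rice at 1.2–2.6 leaves. Visual ratings of growth inhibition, 0 to 100%, followed 18–23 days later.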
# [12] = tested on: velvetleaf; assay: Test Example 1: foliage treatment, upland pot test; type: in vivo, Abutilon theophrasti MEDIC.; details: active ingredient 500 g/ha, observed 18th to 23rd day, 0 = non-treated, 100 = complete kill
# [13] = tested on: soybean; assay: Test Example 1: foliage treatment, upland pot test; type: in vivo, Glycine max Merr.; details: crop, active ingredient 500 g/ha, observed 18th to 23rd day, 0 = non-treated, 100 = complete kill
# Method in brief: as §3
# [14] = tested on: crabgrass; assay: Test Example 1: foliage treatment, upland pot test; type: in vivo, Digitaria sanguinalis L.; details: active ingredient 500 g/ha, observed 18th to 23rd day, 0 = non-treated, 100 = complete kill
# [15] = tested on: redroot pigweed; assay: Test Example 1: foliage treatment, upland pot test; type: in vivo, Amaranthus retroflexus L.; details: active ingredient 500 g/ha, observed 18th to 23rd day, 0 = non-treated, 100 = complete kill
# [16] = tested on: japanese bulrush; assay: Test Example 3: paddy pot test, application under submerged conditions; type: in vivo, Scirpus juncoides; details: active ingredient 250 g/ha; submerged application at 0.5 leaf stage; visually observed 14 days after application; 0 = non-treated, 100 = complete kill
# Method in brief: as §1
# [17] = tested on: corn; assay: Test Example 1: foliage treatment, upland pot test; type: in vivo, Zea mays L.; details: crop, active ingredient 500 g/ha, observed 18th to 23rd day, 0 = non-treated, 100 = complete kill
# Method in brief: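 In this upland pot foliage test, corn plants at 2.1 to 3.2 leaf stages were sprayed by a small size sprayer. The spray was a conventionally formulated wettable powder or emulsifiable concentrate weighed to a set active ingredient amount, diluted in water at 500 L/ha, plus 0.1% (v/v) agricultural spreader. Visual assessment on days 18 to 23 gave growth controlling degree (%), where 0 equals untreated and 100 means complete kill.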
# [18] = tested on: barnyardgrass; assay: Test Example 1: foliage treatment, upland pot test; type: in vivo, Echinochloa crus-galli L.; details: active ingredient 500 g/ha, observed 18th to 23rd day, 0 = non-treated, 100 = complete kill
# Method in brief: as §3
# [19] = tested on: japanese ribbon wapato; assay: Test Example 3: paddy pot test, application under submerged conditions; type: in vivo, Sagittaria pygniaea; details: active ingredient 250 g/ha; submerged application at primary leaf stage; visually observed 14 days after application; 0 = non-treated, 100 = complete kill
# Method in brief: as §1
# [20] = tested on: green foxtail; assay: Test Example 2: soil surface treatment, upland pot test; type: in vivo, Setaria viridis L.; details: active ingredient 500 g/ha, observed 20th to 28th day
# Method in brief: as §2
# [21] = tested on: velvetleaf; assay: as above; type: in vivo, Abutilon theophrasti MEDIC.; details: active ingredient 500 g/ha, observed 20th to 28th day
# Method in brief: as §2
# [22] = tested on: rice; assay: as above; type: in vivo, Oryza sativa L.; details: active ingredient 500 g/ha, observed 20th to 28th day
# Method in brief: as §2
Structure (SMILES),Growth controlling degree (%) Barnyardgrass [1] [%],Growth controlling degree (%) Barnyardgrass [2] [%],Growth controlling degree (%) Redroot pigweed [3] [%],Growth controlling degree (%) Corn [4] [%],Growth controlling degree (%) Prickly sida [5] [%],Growth controlling degree (%) Soyabean [6] [%],Growth controlling degree (%) Green foxtail [7] [%],Growth controlling degree (%) Crabgrass [8] [%],Growth controlling degree (%) Prickly sida [9] [%],Growth controlling degree (%) Rice [10] [%],Growth controlling degree (%) Rice [11] [%],Growth controlling degree (%) Velvetleaf [12] [%],Growth controlling degree (%) Soybean [13] [%],Growth controlling degree (%) Crabgrass [14] [%],Growth controlling degree (%) Redroot pigweed [15] [%],Growth controlling degree (%) Japanese bulrush [16] [%],Growth controlling degree (%) Corn [17] [%],Growth controlling degree (%) Barnyardgrass [18] [%],Growth controlling degree (%) Japanese ribbon wapato [19] [%],Growth controlling degree (%) Green foxtail [20] [%],further results
CC(C)C(c1cnccc1C(F)(F)F)N(C)C(=O)Cc1c(F)cccc1Cl (stereo not drawn) [I-33],100,100,80,30,80,0,70,100,70,10,30,80,40,80,60,85,0,20,90,90,Growth controlling degree (%) Velvetleaf [21]: 90%; Growth controlling degree (%) Rice [22]: 10%
Cc1ccccc1CC(=O)N(C)C(c1cnccc1C(F)(F)F)C(C)C (stereo not drawn) [I-36],100,100,80,20,100,10,70,98,90,10,10,70,70,98,80,95,35,95,90,98,Growth controlling degree (%) Velvetleaf [21]: 50%; Growth controlling degree (%) Rice [22]: 30%
COc1ccc(CC(=O)N(C)C(c2cnccc2C(F)(F)F)C(C)C)cc1 (stereo not drawn) [I-38],100,100,80,10,100,0,60,90,70,30,10,90,60,70,80,70,40,70,85,80,Growth controlling degree (%) Velvetleaf [21]: 0%; Growth controlling degree (%) Rice [22]: 20%
